Data from patent US20090186864A1, “RUTHENIUM (II) COMPOUNDS” (priority 2006, published 2009).

Tests used:
[1] = test system: A2780 ovarian cancer cell line; test: Cytotoxicity against A2780 ovarian cancer cell line (Coulter counter cell count, Example 10); format: cell-based, human; conditions: 24 hours exposure, further 72 h growth, stock solutions in deionised water
Protocol: Some compounds were tested for cytotoxicity against the A2780 ovarian cancer cell line as follows.
(§1) The human ovarian cells were added at a density of 1×10^4 cells per well to 24-well tissue culture trays (Falcon Plastic, Becton Dickenson, Lincon Park, N.J., USA) and allowed to grow for 72 hours before addition of the Ru(II) arene complexes. Stock solutions of the ruthenium compounds were made up fresh in deionised water and sonicated to ensure complete dissolution. These stock solutions were diluted with media to give final concentrations ranging between 0.1 and 100 μM. All compounds were evaluated at each concentration in duplicate wells, and complete assays were repeated a minimum of three times. Cisplatin or carboplatin was employed as a positive and comparative control in each experiment. After 24 hours exposure the drug-containing medium was removed, the cells washed with phosphate buffered saline (PBS) and fresh medium was added. Cell number was assessed after a further 72 h growth using s Coulter counter (Coulter Electronics Ltd, Luton, UK) and the IC50 values (concentration of drug causing 50% growth inhibition) calculated by linear regression analysis comparing the inhibitory effects of the drugs against the growth of untreated cells.

A549 cancer cell line = test: Inhibitory growth activity against A549 cancer cell line (sulforhodamine B assay, Example 11); format: cell-based; conditions: 24 hours exposure, 96 hours recovery, 0.5% DMSO
Protocol: (§2) Other compounds were tested for inhibitory growth activity against the A2780 and A549 cancer cell lines as follows. Each drug was tested for activity at six different concentrations (100 μM, 50 μM, 10 μM, 5 μM, 1 μM and 0.1 μM) and each concentration was tested in triplicate, relative to a cisplatin control.
(§3) The A2780 cancer cell line was maintained by growing the cells in RPMI media supplemented with 5% fetal bovine serum, 1% penicillin/streptomycin and 2 mM L-glutamine. The cells were split when approximately 70-80% confluence were reached using 0.25% trypsin/EDTA. The cells were kept incubated at 37° C., 5% CO2, high humidity. The A549 cancer cell line was maintained by growing the cells in DMEM media supplemented with 10% fetal bovine serum, 1% penicillin/streptomycin and 2 mM L-glutamine. The cells were split when approximately 70-80% confluence were reached using 0.25% trypsin/EDTA. The cells were kept incubated at 37° C., 5% CO2, high humidity.
(§4) A2780 cancer cells were plated out at 5000 cells/well (±10%) on day one. A549 cancer cells were plated out at 2000 cells/well (±10%) on day two. On day three the test compound was dissolved in DMSO to give a stock solution of 20 mM and serial dilutions were carried out in DMSO to give concentrations of drug in DMSO of 10 mM, 2 mM, 1 mM, 0.2 mM and 0.02 mM. These were added to the wells to give the six testing concentrations and a final concentration of DMSO as 0.5% (v/v) with a total volume of drugs and media to be 200 μl. The cells were exposed to the drug for 24 hours then, after drug removal, fresh media was given and the cells were incubated for 96 hours recovery time. The remaining biomass was estimated by the sulforhodamine B assay. The cells were then fixed using 50 μl 50% (w/v) TCA and incubated at 4° C. for one hour. The biomass was stained with 100 μl 0.4% (w/v) sulforhodamine B in 1% acetic acid.
(§5) The dye was solubilised with Tris Buffer and the absorbance was read using a BMG Fluostar microplate reader at 595 nm. A baseline correction at 690 nm was subtracted from the values. The absorbance for 100% cell survival was based on the average absorbance for the 0.1 μM dosed triplicate for that drug. IC50 values were calculated using XL-Fit version 4.0.

A2780 cancer cell line = test: Inhibitory growth activity against A2780 cancer cell line (sulforhodamine B assay, Example 11); format: cell-based, human; conditions: 24 hours exposure, 96 hours recovery, 0.5% DMSO
Protocol: as §2, §3, §4, §5

[2] = test system: cisplatin resistant cell line (A2780^cis); test: Cytotoxicity against cisplatin resistant cell line A2780cis (Example 10); format: cell-based, human
Protocol: as §1

Which IC50 [1] does the source give for “[(η-indan)Ru(2,9-Me2-phen-N,N)Cl]PF6 [Compound 3]” here?
Its IC50 is > 50 µM.

“[(η^6-DHA)Ru(bipydiol-N,N—H)Cl] [Compound 5]” was tested. Which IC50 (A549 cancer cell line) did it give?
Its IC50 is 38.4 µM.

What about the IC50 (A2780 cancer cell line) of the same substance?
The IC50 was 16.7 µM.

What does the source list for “[(η^6-THA)Ru(bipydiol-N,N—H)Cl] [Compound 4]”?
IC50 (A549 cancer cell line): 21 µM; IC50 (A2780 cancer cell line): 7.9 µM

Which IC50 (A549 cancer cell line) does the source give for “[(η^6-THN)Ru(bipydiol-N,N—H)Cl] [Compound 6]” here?
The IC50 was 23.6 µM.

What about the IC50 (A2780 cancer cell line) of the same substance?
The IC50 was 7.3 µM.

Which IC50 (A2780 cancer cell line) does the source give for “[(η^6-biph)RuCl(bipy(OH)O^−)] [Compound 8]” here?
The IC50 was 40 µM.

For “[(η^6-bz)RuCl(bipy(OH)O^−)] [Compound 7]”, which IC50 (A2780 cancer cell line) is on record?
Its IC50 is 65 µM.

“[(η^6-indan)Ru(phenanthroline-N,N)Cl]PF6 [Compound 2]” was tested. Which IC50 [1] did it give?
The IC50 was 52 µM.

Which results are given for “[(η^6-indan)RuCl(bipydiol-N,N)Cl] [Compound 1]”?
IC50 ([2]; A2780cis cisplatin resistant cell line): 2.1 µM; fold resistance ([2]; A2780cis versus A2780): 0.7 fold; IC50 (A549 cancer cell line): 39 µM; IC50 [1]: 3 µM; IC50 (A2780 cancer cell line): 17.6 µM

“[(η^6-p-terp)RuCl(bipy(OH)O—)] [Compound 9]” was tested. Which IC50 (A549 cancer cell line) did it give?
The IC50 was 62 µM.

What about the IC50 (A2780 cancer cell line) of the same substance?
Its IC50 is 21 µM.
